“Also recorded” adds a separate entry of the source. Like-named read-outs stand apart in the source and are kept apart here.

The test system of data set [1] is Salmonella typhimurium TA98. The experiment in a line: Mini Ames experiment, strain TA98. As to conditions: TA98, regardless of the presence or absence of S9. It is filed as cell-based. How it is done:
Histidine auxotrophic strains of Salmonella typhimurium were cultured in a special medium with quite a low content of histidine. The strains were difficult to divide due to lack of nutrition. If a test compound has mutagenicity, a large number of cells will undergo reverse mutation, synthesizing histidine by themselves and developing into colonies visible to the naked eye. In view of the close relationship between mutagenicity and carcinogenesis of chemicals, this method has been widely used in screening carcinogens. Some chemicals need metabolic activation to induce mutagenicity. Mammalian microsomal enzyme S9 can be added into the test system to eliminate the influence of metabolic activation on generation of mutagenicity.
[…] Mini Ames test with compound 50561

Data set [2] can be described thus: MTD experiment, dose gradient by gavage. It is filed as in vivo. As to conditions: both sexes, mouse, in vivo, po, CR mice, by gavage, read-out: maximum tolerance (MTD). On the procedure:
(§1) Mice are commonly used rodents to evaluate the toxicity of a test sample and are also an important part of early preclinical safety evaluation. In this experiment, the toxicity of compound 50561 was tested by administering a dose gradient thereof to the mice by gavage and observing its toxicity.
(§2) This experiment was designed such that for each dose centration, 10 mice were tested, including half males and half females. The males each weighed about 18-23 grams, and the females each weighed about 17-21 grams. They were randomly grouped by a simple randomization procedure. All the animals used in the experiment weighed between ±20% of the average body weight of their respective genders. If there are not enough animals in the study to meet the weight range required thereby, notify the responsible person of the project to take reasonable measures. Animals must be adapted to the laboratory for at least three days. During this period, daily cage observation was conducted once a day, and a detailed clinical observation was necessary before the experiment. Any animal with symptoms or physical abnormalities would be reported to the attending veterinarian and responsible person of the project, and excluded whenever possible. Animals suitable for experimentation will be assigned to respective experimental groups according to the random grouping method described above.
(§3) During the experiment, after administration, all animals were observed continuously for 4 hours; from the end of administration till 3 days thereafter, observations were carried out twice each day, one in the morning and the other in the afternoon; and then observation was carried out once a day. Observations included but were not limited to: skin, hair, eyes, ears, nose, mouth, chest, abdomen, external genitals, limbs, and feet. The respiratory and circulatory systems, autonomic effects (such as salivation), and nervous system (such as tremors, convulsions, stress responses, and abnormal behaviors) should be focused on. Complete anatomical examinations would be performed on all animals that had died, were dying, or planned to be euthanized. Animals found dead outside of fixed working hours could be placed in the refrigerator overnight and dissected immediately on the next working day. At the end of the experiment (14th day after administration), all animals requiring autopsy would be euthanized and autopsied.
(§4) External abnormalities in animals, such as palpable masses, should be examined in detail. The skin would be cut along the midline of the abdomen, and any subcutaneous mass would be confirmed in conjunction with the findings in the observations of animal symptoms. […] Diseased organs were removed, weighed, recoded, and kept in a fixative fluid.

Data set [3] concerns CR mice. The experiment in a line: MTD experiment, dose gradient by gavage. The format is in vivo. On the procedure: as §1, §2, §3, §4

A word on the MTD: it is the highest dose tested that stayed within the study's limit of toxicity. On to `O=C1C=C(OCc2ccc(F)cc2)[C@H](Cc2ccccc2)N1` [Compound 50561], for which the “change in the number of colonies / mutagenicity” value in data set [1] is reported as “did not cause more than twice of a change in the number of colonies; also recorded: no obvious mutagenicity”. The MTD at 14 days in data set [2] (CR) was below 500 mg/kg; in data set [2], at least 250 mg/kg. The Body weight decreased entry in data set [3] (250 mg/kg by gavage) was “Body weight decreased by about 2 g, which”; in data set [3] (500 mg/kg by gavage), “Body weight decreased by about 2 g;”. Moreover, the Remarks result in data set [3] (250 mg/kg by gavage) is “in good condition”; in data set [3] (500 mg/kg by gavage) it was “individual activity decreased; and the body”; in data set [3] (750 mg/kg by gavage) it was “No abnormality of organs in dead individuals”; in data set [3] (1000 mg/kg by gavage) it was “No abnormality of organs in dead individuals”.

For the origin of these results see patent US11332440B2, “4-oxo-alkylated tetramic acid compound, and preparation method thereof” (priority 2017, dated 2022).
